Source: ChEMBL document CHEMBL5649169 (ChemMedChem, 2018)

Experiments:
Ephrin type-A receptor 1 = Ephrin type-A receptor 1 (Homo sapiens, UniProt P21709); assay: Inhibition of Nano Luc-fused full length C-terminal EPHA1 (unknown origin) expressed in HEK293T cells using NanoGlo as substrate incubated for 2 hrs in presence of tracer by NanoBRET assay; format: cell-based
[1] = molecular target: Tyrosine-protein kinase ABL2 (Homo sapiens) (UniProt P42684); note: assay method not described here
[2] = molecular target: Coronin-1A (Homo sapiens) (UniProt P31146); note: assay method not described here
[3] = molecular target: Eukaryotic translation initiation factor 3 subunit L (Homo sapiens) (UniProt Q9Y262); note: assay method not described here
[4] = molecular target: Casein kinase I isoform epsilon (Homo sapiens) (UniProt P49674); note: assay method not described here
[5] = molecular target: DnaJ homolog subfamily A member 3, mitochondrial (Homo sapiens) (UniProt Q96EY1); note: assay method not described here
Chain of DnaJ homolog subfamily A member 3, mitochondrial (Homo sapiens) (Q96EY1 whole entry): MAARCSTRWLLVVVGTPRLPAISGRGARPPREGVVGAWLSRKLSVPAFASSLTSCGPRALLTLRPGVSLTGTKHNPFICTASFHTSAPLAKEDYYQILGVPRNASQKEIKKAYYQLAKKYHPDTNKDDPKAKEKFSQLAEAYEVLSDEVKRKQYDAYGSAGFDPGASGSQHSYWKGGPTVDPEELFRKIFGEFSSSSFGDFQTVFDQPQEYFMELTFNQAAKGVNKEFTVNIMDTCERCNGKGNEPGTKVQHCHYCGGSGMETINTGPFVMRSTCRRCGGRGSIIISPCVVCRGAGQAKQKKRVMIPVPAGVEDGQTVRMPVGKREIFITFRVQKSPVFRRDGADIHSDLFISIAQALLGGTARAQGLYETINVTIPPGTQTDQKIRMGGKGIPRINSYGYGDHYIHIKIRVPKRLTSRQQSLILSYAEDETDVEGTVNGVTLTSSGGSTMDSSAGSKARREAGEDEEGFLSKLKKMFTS

[6] = molecular target: Cytoplasmic dynein 1 heavy chain 1 (Homo sapiens) (UniProt Q14204); note: assay method not described here
[7] = molecular target: Enhancer of rudimentary homolog (Homo sapiens) (UniProt P84090); note: assay method not described here
[8] = molecular target: GPI-anchor transamidase component GPAA1 (Homo sapiens) (UniProt O43292); note: assay method not described here
[9] = molecular target: Glutathione reductase, mitochondrial (Homo sapiens) (UniProt P00390); note: assay method not described here
Chain of Glutathione reductase, mitochondrial (Homo sapiens) (P00390 whole entry): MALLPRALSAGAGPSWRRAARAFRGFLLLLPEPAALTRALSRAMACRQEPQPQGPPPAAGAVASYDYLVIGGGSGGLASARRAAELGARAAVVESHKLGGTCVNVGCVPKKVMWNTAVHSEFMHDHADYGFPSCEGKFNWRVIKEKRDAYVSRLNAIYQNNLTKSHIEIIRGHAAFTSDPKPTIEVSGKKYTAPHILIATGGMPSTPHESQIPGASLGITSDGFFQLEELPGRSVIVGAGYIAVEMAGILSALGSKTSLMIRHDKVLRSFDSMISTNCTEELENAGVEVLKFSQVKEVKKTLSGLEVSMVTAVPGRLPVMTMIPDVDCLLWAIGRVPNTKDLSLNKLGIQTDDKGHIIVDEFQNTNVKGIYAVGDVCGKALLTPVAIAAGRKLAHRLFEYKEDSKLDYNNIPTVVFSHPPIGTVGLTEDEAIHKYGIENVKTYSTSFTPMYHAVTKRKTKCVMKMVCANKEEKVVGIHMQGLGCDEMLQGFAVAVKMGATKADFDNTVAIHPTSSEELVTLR

[10] = molecular target: Heterogeneous nuclear ribonucleoprotein H3 (Homo sapiens) (UniProt P31942); note: assay method not described here
[11] = molecular target: Isocitrate dehydrogenase [NADP], mitochondrial (Homo sapiens) (UniProt P48735); note: assay method not described here
[12] = molecular target: Phosphatidylinositol 3,4,5-trisphosphate 5-phosphatase 2 (Homo sapiens) (UniProt O15357); note: assay method not described here
[13] = molecular target: Importin-5 (Homo sapiens) (UniProt O00410); note: assay method not described here
[14] = molecular target: LIM and SH3 domain protein 1 (Homo sapiens) (UniProt Q14847); note: assay method not described here
[15] = molecular target: Mitogen-activated protein kinase 7 (Homo sapiens) (UniProt Q13164); note: assay method not described here
[16] = molecular target: MAP kinase-activated protein kinase 5 (Homo sapiens) (UniProt Q8IW41); note: assay method not described here
[17] = molecular target: Double-strand break repair protein MRE11 (Homo sapiens) (UniProt P49959); note: assay method not described here
Myosin-9 (Homo sapiens) = Myosin-9 (Homo sapiens) (UniProt P35579); note: assay method not described here
Chain of Myosin-9 (Homo sapiens) (P35579 whole entry): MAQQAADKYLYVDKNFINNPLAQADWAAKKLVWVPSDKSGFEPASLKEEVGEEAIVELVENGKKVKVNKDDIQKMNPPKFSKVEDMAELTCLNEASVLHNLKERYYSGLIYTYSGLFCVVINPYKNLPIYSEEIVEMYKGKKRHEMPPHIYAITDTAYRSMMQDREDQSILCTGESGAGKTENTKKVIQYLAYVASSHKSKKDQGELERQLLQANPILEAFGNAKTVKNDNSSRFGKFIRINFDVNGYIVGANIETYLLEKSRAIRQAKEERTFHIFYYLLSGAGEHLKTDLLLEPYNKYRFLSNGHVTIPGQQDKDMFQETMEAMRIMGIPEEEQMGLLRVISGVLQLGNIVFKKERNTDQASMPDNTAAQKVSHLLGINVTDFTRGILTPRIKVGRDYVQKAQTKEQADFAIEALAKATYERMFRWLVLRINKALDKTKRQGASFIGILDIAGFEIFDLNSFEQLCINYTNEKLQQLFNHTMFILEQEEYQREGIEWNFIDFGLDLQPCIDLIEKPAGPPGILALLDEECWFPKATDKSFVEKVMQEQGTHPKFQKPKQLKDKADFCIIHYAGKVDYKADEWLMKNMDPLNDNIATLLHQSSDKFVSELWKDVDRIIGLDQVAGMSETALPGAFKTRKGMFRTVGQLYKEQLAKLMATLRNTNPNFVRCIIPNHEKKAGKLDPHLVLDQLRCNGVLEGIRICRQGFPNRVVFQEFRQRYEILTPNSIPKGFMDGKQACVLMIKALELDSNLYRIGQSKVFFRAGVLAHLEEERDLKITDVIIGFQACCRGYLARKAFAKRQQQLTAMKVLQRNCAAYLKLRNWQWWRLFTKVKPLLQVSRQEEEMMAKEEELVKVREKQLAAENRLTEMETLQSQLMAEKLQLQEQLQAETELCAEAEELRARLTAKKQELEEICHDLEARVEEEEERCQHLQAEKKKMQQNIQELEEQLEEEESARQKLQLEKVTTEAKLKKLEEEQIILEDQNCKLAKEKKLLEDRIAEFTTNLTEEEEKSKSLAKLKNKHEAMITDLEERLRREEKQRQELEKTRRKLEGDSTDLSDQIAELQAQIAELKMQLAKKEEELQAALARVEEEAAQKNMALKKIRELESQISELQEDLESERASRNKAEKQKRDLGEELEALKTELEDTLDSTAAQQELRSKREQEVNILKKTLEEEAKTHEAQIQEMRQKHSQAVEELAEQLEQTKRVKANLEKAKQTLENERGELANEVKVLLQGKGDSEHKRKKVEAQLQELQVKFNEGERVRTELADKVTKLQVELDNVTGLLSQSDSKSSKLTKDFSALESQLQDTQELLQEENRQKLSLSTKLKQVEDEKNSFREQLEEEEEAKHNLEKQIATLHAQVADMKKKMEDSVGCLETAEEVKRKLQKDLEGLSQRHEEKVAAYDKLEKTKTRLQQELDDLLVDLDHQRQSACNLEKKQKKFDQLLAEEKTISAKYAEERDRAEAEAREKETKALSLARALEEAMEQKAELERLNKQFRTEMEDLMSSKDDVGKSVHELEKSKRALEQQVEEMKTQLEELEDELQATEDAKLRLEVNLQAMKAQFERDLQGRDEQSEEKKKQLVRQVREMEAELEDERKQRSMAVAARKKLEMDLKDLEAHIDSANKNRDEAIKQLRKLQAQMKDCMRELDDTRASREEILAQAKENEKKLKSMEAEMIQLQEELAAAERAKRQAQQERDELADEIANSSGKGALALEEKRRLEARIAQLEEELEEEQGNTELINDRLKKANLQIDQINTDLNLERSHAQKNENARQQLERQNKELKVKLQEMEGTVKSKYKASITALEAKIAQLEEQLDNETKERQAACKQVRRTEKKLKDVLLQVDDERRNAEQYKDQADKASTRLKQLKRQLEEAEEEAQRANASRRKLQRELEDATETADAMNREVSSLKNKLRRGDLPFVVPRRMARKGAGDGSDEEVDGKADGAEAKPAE

[18] = molecular target: Unconventional myosin-If (Homo sapiens) (UniProt O00160); note: assay method not described here
Chain of Unconventional myosin-If (Homo sapiens) (O00160 whole entry): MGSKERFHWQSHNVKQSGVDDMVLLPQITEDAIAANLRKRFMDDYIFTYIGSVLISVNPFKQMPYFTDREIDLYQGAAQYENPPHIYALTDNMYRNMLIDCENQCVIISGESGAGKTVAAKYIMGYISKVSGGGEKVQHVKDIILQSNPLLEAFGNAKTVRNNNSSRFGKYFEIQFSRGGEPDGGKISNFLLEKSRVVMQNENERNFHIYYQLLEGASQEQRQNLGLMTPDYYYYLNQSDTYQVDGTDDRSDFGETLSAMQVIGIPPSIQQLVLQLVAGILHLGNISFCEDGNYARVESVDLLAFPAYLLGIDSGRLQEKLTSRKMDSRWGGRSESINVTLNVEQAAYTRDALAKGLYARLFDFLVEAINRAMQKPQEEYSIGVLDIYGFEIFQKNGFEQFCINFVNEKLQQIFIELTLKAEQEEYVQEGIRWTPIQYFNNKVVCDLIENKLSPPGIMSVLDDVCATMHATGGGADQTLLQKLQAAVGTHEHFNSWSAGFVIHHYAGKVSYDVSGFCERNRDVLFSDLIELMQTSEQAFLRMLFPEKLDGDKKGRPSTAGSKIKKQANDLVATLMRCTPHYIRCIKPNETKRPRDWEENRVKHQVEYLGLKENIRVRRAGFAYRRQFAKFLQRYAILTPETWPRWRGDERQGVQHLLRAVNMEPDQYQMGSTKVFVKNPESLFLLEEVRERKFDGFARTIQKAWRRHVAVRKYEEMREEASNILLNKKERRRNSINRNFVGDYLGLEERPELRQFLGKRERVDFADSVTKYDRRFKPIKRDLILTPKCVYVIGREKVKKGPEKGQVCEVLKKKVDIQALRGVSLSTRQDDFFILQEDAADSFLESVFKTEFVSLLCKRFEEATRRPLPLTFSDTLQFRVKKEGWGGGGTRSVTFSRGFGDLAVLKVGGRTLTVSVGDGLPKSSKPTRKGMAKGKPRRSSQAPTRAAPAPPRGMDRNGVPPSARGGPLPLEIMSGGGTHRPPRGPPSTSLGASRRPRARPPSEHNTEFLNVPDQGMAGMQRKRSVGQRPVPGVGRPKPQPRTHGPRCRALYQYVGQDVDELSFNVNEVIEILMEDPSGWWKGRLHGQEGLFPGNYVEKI

[19] = molecular target: NADH-ubiquinone oxidoreductase 75 kDa subunit, mitochondrial (Homo sapiens) (UniProt P28331); note: assay method not described here
[20] = molecular target: Serine/threonine-protein kinase Nek9 (Homo sapiens) (UniProt Q8TD19); note: assay method not described here
[21] = molecular target: Puromycin-sensitive aminopeptidase (Homo sapiens) (UniProt P55786); note: assay method not described here
[22] = molecular target: Nuclear pore complex protein Nup160 (Homo sapiens) (UniProt Q12769); note: assay method not described here
[23] = molecular target: Nuclear transport factor 2 (Homo sapiens) (UniProt P61970); note: assay method not described here
Chain of Nuclear transport factor 2 (Homo sapiens) (P61970 whole entry): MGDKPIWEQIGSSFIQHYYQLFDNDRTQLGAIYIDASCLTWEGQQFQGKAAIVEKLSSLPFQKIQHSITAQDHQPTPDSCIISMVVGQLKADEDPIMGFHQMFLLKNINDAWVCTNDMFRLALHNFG

[24] = molecular target: Serine/threonine-protein kinase PAK 4 (Homo sapiens) (UniProt O96013); note: assay method not described here
[25] = molecular target: Phosphoenolpyruvate carboxykinase [GTP], mitochondrial (Homo sapiens) (UniProt Q16822); note: assay method not described here
[26] = molecular target: Peptidyl-prolyl cis-trans isomerase A (Homo sapiens) (UniProt P62937); note: assay method not described here
[27] = molecular target: Peroxiredoxin-6 (Homo sapiens) (UniProt P30041); note: assay method not described here
Chain of Peroxiredoxin-6 (Homo sapiens) (P30041 whole entry): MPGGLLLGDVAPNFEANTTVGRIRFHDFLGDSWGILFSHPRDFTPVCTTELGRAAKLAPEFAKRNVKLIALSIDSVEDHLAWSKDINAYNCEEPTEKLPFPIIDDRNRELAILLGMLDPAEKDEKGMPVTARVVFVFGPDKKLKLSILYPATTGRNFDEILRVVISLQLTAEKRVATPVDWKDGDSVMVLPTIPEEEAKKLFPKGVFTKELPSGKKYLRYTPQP

[28] = molecular target: 5'-AMP-activated protein kinase subunit beta-1 (Homo sapiens) (UniProt Q9Y478); note: assay method not described here
[29] = molecular target: Proteasome activator complex subunit 1 (Homo sapiens) (UniProt Q06323); note: assay method not described here
[30] = molecular target: Glutamine--tRNA ligase (Homo sapiens) (UniProt P47897); note: assay method not described here
Homo sapiens [31] = species: Homo sapiens; note: assay method not described here
Homo sapiens [32] = species: Homo sapiens; remark: listed apart in the source; note: assay method not described here
[33] = molecular target: Rho-associated protein kinase 1 (Homo sapiens) (UniProt Q13464); note: assay method not described here
[34] = molecular target: Large ribosomal subunit protein uL24 (Homo sapiens) (UniProt P61254); note: assay method not described here
[35] = molecular target: Small ribosomal subunit protein uS8 (Homo sapiens) (UniProt P62244); note: assay method not described here
[36] = molecular target: Small ribosomal subunit protein eS8 (Homo sapiens) (UniProt P62241); note: assay method not described here
[37] = molecular target: Sorting and assembly machinery component 50 homolog (Homo sapiens) (UniProt Q9Y512); note: assay method not described here
[38] = molecular target: Sideroflexin-1 (Homo sapiens) (UniProt Q9H9B4); note: assay method not described here
[39] = molecular target: STE20-like serine/threonine-protein kinase (Homo sapiens) (UniProt Q9H2G2); note: assay method not described here
[40] = molecular target: FACT complex subunit SSRP1 (Homo sapiens) (UniProt Q08945); note: assay method not described here
[41] = molecular target: Transmembrane 9 superfamily member 4 (Homo sapiens) (UniProt Q92544); note: assay method not described here
[42] = molecular target: Nucleoprotein TPR (Homo sapiens) (UniProt P12270); note: assay method not described here
[43] = molecular target: Wee1-like protein kinase (Homo sapiens) (UniProt P30291); note: assay method not described here
Chain of Wee1-like protein kinase (Homo sapiens) (P30291 whole entry, looked up): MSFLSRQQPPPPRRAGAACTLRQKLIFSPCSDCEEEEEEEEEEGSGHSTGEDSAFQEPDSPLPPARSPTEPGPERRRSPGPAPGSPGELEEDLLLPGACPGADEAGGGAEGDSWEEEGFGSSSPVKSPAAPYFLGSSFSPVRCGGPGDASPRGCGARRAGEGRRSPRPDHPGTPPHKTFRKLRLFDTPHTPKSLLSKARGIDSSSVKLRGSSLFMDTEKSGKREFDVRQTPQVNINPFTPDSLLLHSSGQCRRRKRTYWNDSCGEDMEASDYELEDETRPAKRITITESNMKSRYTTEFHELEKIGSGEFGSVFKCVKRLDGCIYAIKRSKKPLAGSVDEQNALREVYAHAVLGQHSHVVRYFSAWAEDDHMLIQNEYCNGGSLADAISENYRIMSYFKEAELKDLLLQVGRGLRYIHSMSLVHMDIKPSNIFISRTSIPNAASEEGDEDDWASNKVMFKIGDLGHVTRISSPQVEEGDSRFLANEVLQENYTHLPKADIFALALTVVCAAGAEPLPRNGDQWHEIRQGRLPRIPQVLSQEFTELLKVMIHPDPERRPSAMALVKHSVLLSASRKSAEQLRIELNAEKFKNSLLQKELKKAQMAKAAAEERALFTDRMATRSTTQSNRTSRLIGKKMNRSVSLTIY

[44] = molecular target: X-ray repair cross-complementing protein 6 (Homo sapiens) (UniProt P12956); note: assay method not described here

Structure (SMILES): Cc1ccc(C(=O)Nc2cccc(C(F)(F)F)c2)cc1Nc1nc(-c2cccnc2)nc2c1cnn2C
- IC50 (Ephrin type-A receptor 1): 0.303 µM
- ED50 [1]: 1.06 µM
- ED50 [2]: 16.5 µM
- ED50 [3]: 2.5 µM
- ED50 [4]: 4.26 µM
- ED50 [5]: 0.00101 µM
- ED50 [6]: 1.3 µM
- ED50 [7]: 0.00895 µM
- ED50 [8]: 56.5 µM
- ED50 [9]: 8.81 µM
- ED50 [10]: 0.00513 µM
- ED50 [11]: 0.00187 µM
- ED50 [12]: 0.364 µM
- ED50 [13]: 0.00445 µM
- ED50 [14]: 0.00467 µM
- ED50 [15]: 4.09 µM
- ED50 [16]: 26.2 µM
- ED50 [17]: 2.59 µM
- ED50 (Myosin-9 (Homo sapiens)): 0.756 µM
- ED50 [18]: 4.43 µM
- ED50 [19]: 0.765 µM
- ED50 [20]: 0.163 µM
- ED50 [21]: 0.0863 µM
- ED50 [22]: 0.878 µM
- ED50 [23]: 0.00217 µM
- ED50 [24]: 9.68 µM
- ED50 [25]: 0.398 µM
- ED50 [26]: 0.396 µM
- ED50 [27]: 66.2 µM
- ED50 [28]: 3.25 µM
- ED50 [29]: 2570 µM
- ED50 [30]: 0.107 µM
- ED50 (Homo sapiens [31]): 322 µM
- ED50 (Homo sapiens [32]): 3.52 µM
- ED50 [33]: 11 µM
- ED50 [34]: 6.18 µM
- ED50 [35]: 0.00641 µM
- ED50 [36]: 1.62 µM
- ED50 [37]: 0.784 µM
- ED50 [38]: 3.47 µM
- ED50 [39]: 0.0219 µM
- ED50 [40]: 0.00223 µM
- ED50 [41]: 9.65 µM
- ED50 [42]: 10.4 µM
- ED50 [43]: 0.0311 µM
- ED50 [44]: 0.0358 µM

Structure (SMILES): Cc1ccc(C(=O)Nc2cccc(C(F)(F)F)c2)cc1Nc1nc(-c2cccnc2)nc2nn(C)cc12
- IC50 (Ephrin type-A receptor 1): 16.8 µM
- ED50 [1]: 2.04 µM
- ED50 [2]: 0.0507 µM
- ED50 [3]: 0.0714 µM
- ED50 [4]: 0.00408 µM
- ED50 [5]: 0.193 µM
- ED50 [6]: 51200 µM
- ED50 [7]: 0.806 µM
- ED50 [8]: 0.841 µM
- ED50 [9]: 24.7 µM
- ED50 [10]: 17.1 µM
- ED50 [11]: 16.8 µM
- ED50 [12]: 1.01 µM
- ED50 [13]: 0.342 µM
- ED50 [14]: 109 µM
- ED50 [15]: 5.74 µM
- ED50 [16]: 0.047 µM
- ED50 [17]: 14.9 µM
- ED50 (Myosin-9 (Homo sapiens)): 0.0973 µM
- ED50 [18]: 0.105 µM
- ED50 [19]: 0.959 µM
- ED50 [20]: 0.0519 µM
- ED50 [21]: 0.0907 µM
- ED50 [22]: 160 µM
- ED50 [23]: 0.419 µM
- ED50 [24]: 25.1 µM
- ED50 [25]: 0.429 µM
- ED50 [26]: 2.04 µM
- ED50 [27]: 0.0611 µM
- ED50 [28]: 5.82 µM
- ED50 [29]: 2.59 µM
- ED50 [30]: 17 µM
- ED50 (Homo sapiens [31]): 0.0718 µM
- ED50 (Homo sapiens [32]): 43.2 µM
- ED50 [33]: 2.23 µM
- ED50 [34]: 0.0162 µM
- ED50 [35]: 5.32 µM
- ED50 [36]: 9.51 µM
- ED50 [37]: 0.00806 µM
- ED50 [38]: 0.012 µM
- ED50 [39]: 0.187 µM
- ED50 [40]: 3.6 µM
- ED50 [41]: 95.3 µM
- ED50 [42]: 7.76 µM
- ED50 [43]: 2.63 µM
- ED50 [44]: 0.0567 µM
